# Laboratory results published in patent US20260285857A1, “BICYCLIC AND HETEROCYCLIC AMIDE COMPOUNDS” (priority 2024, published 2026).
# Test system: immunoglobulin light chain protein WIL-FL T46L
# Assay: Differential scanning fluorimetry (thermal shift) assay
# Assay type: binding
# Conditions: not given
row,Compound,DSF
1,"Cc1cc(N2CC[C@](C)(c3ccccc3)C2)cn2nc(C34CC(CO)(CO3)C4N3CC4(CC4)NC3=O)nc12 (stereo partly drawn) [Compound 576, 6-(4-(hydroxymethyl)-1-(8-methyl-6-((R)-3-methyl-3-phenylpyrrolidin-1-yl)-[1,2,4]triazolo[1,5-a]pyridin-2-yl)-2-oxabicyclo[2.1.1]hexan-5-yl)-4,6-diazaspiro[2.4]heptan-5-one]",***** (key: 0-0.5° C.=*; >0.5-1 °C =**; >1-1.5° C.=***; >1.5-2.5° C.=****; >2.5° C.=*****)

# Same assay, conditions: Table A; temperature shift [Tm]compound-[Tm]vehicle; recombinant WIL-FL T46L
row,Compound,DSF
1,Cc1cccc([C@@]2(C)CCN(c3cc(C)c4nc(C(=O)N5C[C@@H]6CN(c7cccc(C(=O)O)n7)C[C@@H]6C5)nn4c3)C2)c1 [Compound 415],***** (>2.5° C.=*****)
2,Cc1cc(N2CC[C@](C)(c3ccccc3)C2)cn2nc(C(=O)NC3CCN(c4cccc(C(=O)O)n4)CC3)nc12 [Compound 276],***** (>2.5° C.=*****)
3,C[C@]1(c2ccccc2)CCN(c2cc(CN)c3nc(C(=O)N4CC[C@@]5(CCN(c6cccc(C(=O)O)n6)C5)C4)nn3c2)C1 [Compound 345],***** (>2.5° C.=*****)
4,Cc1cc(N2CC[C@](C)(c3ccccc3)C2)cn2nc(C(=O)NC3CC4CCC(C3)N4)nc12 (stereo partly drawn) [Compound 199],***** (>2.5° C.=*****)
5,COC(=O)c1cc(-n2nnc3c2CCN(C(=O)c2nc4c(C)cc(N5CC[C@](C)(c6ccccc6)C5)cn4n2)C3)ccn1 [Compound 402],***** (>2.5° C.=*****)
6,"Cc1cc(N2CC[C@](C)(c3ccccc3)C2)cn2nc(C(=O)NC3CCN(c4cccc(C(=O)O)n4)C3)nc12 (stereo partly drawn) [Compound 19, 6-(3-(8-methyl-6-((R)-3-methyl-3-phenylpyrrolidin-1-yl)-[1,2,4]triazolo[1,5-a]pyridine-2-carboxamido)pyrrolidin-1-yl)picolinic acid]",***** (>2.5° C.=*****)
7,Cc1cc(N2CC[C@](C)(c3ccccc3)C2)cn2nc(C(=O)N3CC[C@@]4(CCN(C5CCC(C(=O)O)CC5)C4)C3)nc12 (stereo partly drawn) [Compound 376],***** (>2.5° C.=*****)
8,Cc1cc(N2CC[C@](C)(c3ccccc3)C2)cn2nc(C(=O)N[C@H]3CCN(CC(F)F)C3)nc12 [Compound 193],***** (>2.5° C.=*****)
9,Cc1cc(N2CC[C@](C)(c3ccccc3)C2)cn2nc(C(=O)NC3CCC34CN(c3cccc(C(=O)O)n3)C4)nc12 (stereo partly drawn) [Compound 228],***** (>2.5° C.=*****)
10,Cc1cc(N2CC[C@](C)(c3ccccc3)C2)cn2nc(C(=O)N3CC[C@@]4(CCN(c5cccc(C(=O)O)n5)C4)C3)nc12 [Compound 267],***** (>2.5° C.=*****)
11,Cc1noc(N2CCC(NC(=O)c3nc4c(C)cc(N5CC[C@](C)(c6ccccc6)C5)cn4n3)CC2)n1 [Compound 290],***** (>2.5° C.=*****)
12,CNC(=O)c1cc2c(C)cc(N3CC[C@](C)(c4ccccc4)C3)cn2n1 [Compound 433],***** (>2.5° C.=*****)
13,Cc1cc(N2CC[C@](C)(c3ccccc3)C2)cn2nc(C(=O)N3CC[C@@](C)(O)C3)nc12 [Compound 159],***** (>2.5° C.=*****)
14,Cc1cc(N2CC[C@](C)(c3ccccc3)C2)cn2nc(C(=O)N3CCC4(CCN(c5cccc(C(=O)O)n5)C4)C3)nc12 (stereo partly drawn) [Compound 258],***** (>2.5° C.=*****)
15,CCC1(c2cccc(C)c2)CN(c2cc(C)c3nc(C(=O)N4C[C@@H]5CN(c6cccc(C(=O)O)n6)C[C@@H]5C4)nn3c2)C1 [Compound 397],***** (>2.5° C.=*****)
16,COC(=O)[C@]1(C)CCN(C(=O)c2nc3c(C)cc(N4CC[C@](C)(c5ccccc5)C4)cn3n2)C1 [Compound 125],***** (>2.5° C.=*****)
17,Cc1cc(N2CCC(C)(c3nccs3)C2)cn2nc(C(=O)N3CC[C@@]4(CCN(c5cccc(C(=O)O)n5)C4)C3)nc12 (stereo partly drawn) [Compound 99],**** (>1.5-2.5° C.=****)
18,Cc1cc(N2CC[C@](C)(c3ccccc3)C2)cn2nc(C(=O)N[C@@H]3CNC[C@@H]3O)nc12 [Compound 191],***** (>2.5° C.=*****)
19,Cc1cc(N2CCC(C)(c3ccccc3O)C2)cn2nc(C(=O)N3CC[C@@]4(CCN(c5cccc(C(=O)O)n5)C4)C3)nc12 (stereo partly drawn) [Compound 410],*** (>1-1.5° C.=***)
20,Cc1cc(N2CCC(NC(=O)c3nc4c(C)cc(N5CC[C@](C)(c6ccccc6)C5)cn4n3)CC2)cc(C(=O)O)n1 [Compound 251],***** (>2.5° C.=*****)
21,Cc1nc(C2C3COC2(c2nc4c(CO)cc(N5CC[C@](C)(c6ccccc6)C5)cn4n2)C3)n[nH]1 (stereo partly drawn) [Compound 344],***** (>2.5° C.=*****)
22,Cc1cc(N2CC[C@](C)(c3ccccc3)C2)cn2nc(C(=O)NC3CCN(c4ccnc(C(=O)O)c4)CC3)nc12 [Compound 264],***** (>2.5° C.=*****)
23,Cc1cc(N2CCC(C)(C3CC4(CCC4)C3)C2)cn2nc(C(=O)N3C[C@@H]4CN(c5cccc(C(=O)O)n5)C[C@@H]4C3)nc12 (stereo partly drawn) [Compound 296],** (>0.5-1 °C =**)
24,CCC1(c2ccccc2)CN(c2cc(C)c3nc(C(=O)NC4CCN(c5cccc(C(=O)O)n5)CC4)nn3c2)C1 [Compound 390],***** (>2.5° C.=*****)
25,CNC(=O)c1nc2c(C(C)O)cc(N3CC[C@](C)(c4ccccc4)C3)cn2n1 (stereo partly drawn) [Compound 336],***** (>2.5° C.=*****)
26,Cc1cc(N2CC[C@](C)(c3ccccc3)C2)cn2nc([C@@]34CO[C@@H](C3)C(N)C4)nc12 (stereo partly drawn) [Compound 67],**** (>1.5-2.5° C.=****)
27,Cc1cc(N2CC[C@](C)(c3ccccc3)C2)cn2nc(C(=O)N3CC[C@@](C)(C(=O)O)C3)nc12 [Compound 126],***** (>2.5° C.=*****)

# Same assay, conditions: Table B; temperature shift [Tm]compound-[Tm]vehicle; recombinant WIL-FL T46L
row,Compound,DSF
1,Cc1cc(N2CC[C@](C)(c3ccccc3)C2)cn2nc(C34CC(CO3)C4c3nc(NC(=O)C4CC(C)(C(=O)O)C4)n[nH]3)nc12 (stereo partly drawn) [Compound 555],***** (>2.5° C.=*****)
2,Cc1ccc(N2CC[C@@]3(CCN(C(=O)c4nc5c(C)cc(N6CC[C@](C)(c7ccccc7)C6)cn5n4)C3)C2)nc1C(=O)O [Compound 710],***** (>2.5° C.=*****)
3,"Cc1cc(N2CC[C@](C)(c3ccccc3)C2)cn2nc(C(=O)N3CC4CN(c5cccc(C(=O)O)n5)CC4(C#N)C3)nc12 (stereo partly drawn) [Compound 636, 6-[3a-cyano-5-[8-methyl-6-[(3R)-3-methyl-3-phenyl-pyrrolidin-1-yl]-[1,2,4]triazolo[1,5-a]pyridine-2-carbonyl]-3,4,6,6a-tetrahydro-1H-pyrrolo[3,4-c]pyrrol-2-yl]pyridine-2-carboxylic acid]",***** (>2.5° C.=*****)
4,Cc1cc(N2CC[C@](C)(c3ccccc3)C2)cn2nc(C34CC(CO3)C4N3CC4(CN(c5cccc(C(=O)O)n5)C4)NC3=O)nc12 (stereo partly drawn) [Compound 516],***** (>2.5° C.=*****)
5,Cc1cc(N2CC[C@](C)(c3ccccc3)C2)cn2nc(C(=O)N3CC[C@@]4(CCN(C(=O)C5COC(C(=O)O)C5)C4)C3)nc12 (stereo partly drawn) [Compound 672],***** (>2.5° C.=*****)
6,Cc1cc(N2CC[C@](C)(c3ccccc3)C2)cn2nc(C34CC(CO3)C4C(=O)Nc3cccc(C(=O)O)n3)nc12 (stereo partly drawn) [Compound 478],***** (>2.5° C.=*****)
7,Cc1cc(N2CC[C@](C)(n3ccc(C(F)(F)F)n3)C2)cn2nc(C(=O)N3CC[C@@]4(CCN(c5cccc(C(=O)O)n5)C4)C3)nc12 [Compound 742],***** (>2.5° C.=*****)
8,Cc1cc(N2CC[C@](C)(c3ccccc3)C2)cn2nc(C34CC(CO3)C4c3ncn[nH]3)nc12 (stereo partly drawn) [Compound 494],***** (>2.5° C.=*****)
9,"Cc1cc(N2CCC(C)(n3cc(C(F)(F)F)cn3)C2)cn2nc(C(=O)N3CC[C@@]4(CCN(c5cccc(C(=O)O)n5)C4)C3)nc12 (stereo partly drawn) [Compound 744, 6-[(5R)-2-[8-methyl-6-[3-methyl-3-[4-(trifluoromethyl)pyrazol-1-yl]pyrrolidin-1-yl]-[1,2,4]triazolo[1,5-a]pyridine-2-carbonyl]-2,7-diazaspiro[4.4]nonan-7-yl]pyridine-2-carboxylic acid]",***** (>2.5° C.=*****)
10,CCS(=O)(=O)Nc1n[nH]c(C2C3COC2(c2nc4c(C)cc(N5CC[C@@](C)(n6ccc(C(F)(F)F)n6)C5)cn4n2)C3)n1 (stereo partly drawn) [Compound 563],**** (>1.5-2.5° C.=****)
11,Cc1cc(N2CC[C@](C)(c3ccccc3)C2)cn2nc(C3OC4(C)CC3(C(N)=O)C4)nc12 (stereo partly drawn) [Compound 476],***** (>2.5° C.=*****)
12,"Cc1cc(N2CC[C@](C)(c3ccccc3)C2)cn2nc(C34CC(CN)(CO3)C4CO)nc12 (stereo partly drawn) [Compound 582, (4-(aminomethyl)-1-(8-methyl-6-((R)-3-methyl-3-phenylpyrrolidin-1-yl)-[1,2,4]triazolo[1,5-a]pyridin-2-yl)-2-oxabicyclo[2.1.1]hexan-5-yl)methanol]",***** (>2.5° C.=*****)
13,Cc1n[nH]c(C2C3(CNC(=O)C4CC[C@H](C(=O)O)O4)COC2(c2nc4c(C)cc(N5CC[C@](C)(c6ccccc6)C5)cn4n2)C3)n1 (stereo partly drawn) [Compound 590],***** (>2.5° C.=*****)
14,CNC(=O)C12CC(NC(=O)c3nc4c(C)cc(N5CC[C@](C)(c6ccccc6)C5)cn4n3)(CO1)C2 [Compound 597],***** (>2.5° C.=*****)
15,"Cc1cc(N2CC[C@](C)(c3ccccc3)C2)cn2nc(C(=O)N3CC[C@@]4(CCN(C(=O)[C@@H]5CC[C@H](C(=O)O)C5)C4)C3)nc12 [Compound 708, (1S,3R)-3-[(5R)-7-[8-methyl-6-[(3R)-3-methyl-3-phenyl-pyrrolidin-1-yl]-[1,2,4]triazolo[1,5-a]pyridine-2-carbonyl]-2,7-diazaspiro[4.4]nonane-2-carbonyl]cyclopentanecarboxylic acid]",***** (>2.5° C.=*****)
16,Cc1cc(N2CC[C@](C)(c3cccc(F)c3)C2)cn2nc(C(=O)NC3CCN(c4cccc(C(=O)O)n4)CC34COC4)nc12 (stereo partly drawn) [Compound 700],***** (>2.5° C.=*****)
17,"Cc1cc(N2CC[C@](C)(c3ccccc3)C2)cn2nc(C(=O)NC3CN(c4cccc(C(=O)O)n4)CC4(COC4)C3)nc12 (stereo partly drawn) [Compound 699, 6-[6-[[8-methyl-6-[(3R)-3-methyl-3-phenyl-pyrrolidin-1-yl]-[1,2,4]triazolo[1,5-a]pyridine-2-carbonyl]amino]-2-oxa-8-azaspiro[3.5]nonan-8-yl]pyridine-2-carboxylic acid]",***** (>2.5° C.=*****)
